Assays:
Format in all cases: cell-based
Details in all cases: SRB staining
[1] = tested on: human lung cancer cell (HCC827, EGFR Exon 19 deletion activating mutation); assay: Proliferation inhibition (SRB) on human lung cancer cell HCC827
Excerpt: (§1) The pharmacodynamic action of the compound of the present invention in terms of inhibiting the proliferation of cancer cells may be assayed by conventional methods. […] Inhibition ratio (%)=[(blank control OD−inhibitor OD)/blank control OD]×100%
(§2) Blank control OD: the OD value of the well of normally growed cells without the action of a drug.
(§3) Inhibitor OD: the OD value of the well of cells with the action of the added compounds to be screened.
(§4) The median inhibitory concentration (IC50) value is obtained by the software GraphPad Prism 5.0 by the 4-parameter logistic curve fit calculation. Each experiment is repeated three times, and the average IC50 value for three experiments is used as the final index for the inhibitory ability.
(§5) Cells in the logarithmic phase were inoculated to 96-well culture plates (cell density: 5000/well, cell suspension: 180 μl/well), and cultured at 37° C. under 5% CO2 for 24 hours. After the culturing, the cells adhered to the well walls. Each of compounds was dissolved in DMSO in advance to formulate a […] stock solution. Upon testing, the stock solution was diluted with complete medium to 10 times the target concentration in another 96-cell plate. And then the compound was added at 20 μl/cell in the 96-well plate in which the cells were inoculated, i.e. the target concentration could be reached. The well for each concentration was triplicated, and the blank control was established. Cells continued to be cultured at 37° C. under 5% CO2 for 72 hours. After the termination of culturing, 50 μl pre-cooled (4° C.) 50% trichloroacetic acid, i.e., TCA was added to each of wells (final concentration=10%), and was placed at 4° C. for 1 hour to fix the cells. The resulting matter was washed with purified water for at least 5 times, and dried naturally in air or at 60° C. in an oven. 4 mg/ml Sulforhodamine B (SRB) solution prepared by 1% glacial acetic acid/purified water was added at 100 μl/well to each well so as to stain for 1 hour at room temperature. The supernatant was discarded. The residue was washed with 1% acetic acid for at least 5 times to remove the non-specifically binding, and dried for use. To each well was added 150 μl of 10 mM Tris-HCl solution for dissolving the contents therein.

[2] = tested on: human skin cancer cell (A431, wild-type EGFR); assay: Proliferation inhibition (SRB) on human skin cancer cell A431
Excerpt: as §1, §2, §3, §4, §5

[3] = tested on: human lung cancer cell (H1975, EGFR L858R/T790M resistant mutation); assay: Proliferation inhibition (SRB) on human lung cancer cell H1975
Excerpt: as §1, §2, §3, §4, §5

SMILES	IC50 ([1]; Homo sapiens, HCC827, 72 h) [nM]	IC50 ([3]; Homo sapiens, NCI-H1975, 72 h) [nM]	IC50 ([2]; Homo sapiens, A-431, 72 h) [nM]	also measured
C=CC(=O)Nc1cc(Nc2nccc(-c3cn(C)c4ccccc34)n2)c(OC)cc1N(C)CCN(C)C [AZD9291, reference compound]				IC50 ([1]; Homo sapiens, 72 hours): 3.8 nM; IC50 ([2]; Homo sapiens, A-431, 72 hours): 70.4 nM
C=CC(=O)Nc1cc(Nc2ncc(Cl)c(-c3cn(C)c4ccccc34)n2)c(OC(C)C)nc1N(C)CCN(C)C [Example 1 compound, N-{2-{[2-(dimethylamino)ethyl](methyl)amino}-6-isopropyloxy-5-{5-chloro-[4-(1-methyl-1H-indol-3-yl)pyrimidin-2-yl]amino}pyridin-3-yl}acrylamide]				IC50 ([1]; 72 hours): 2.15 nM; IC50 ([3]; 72 hours): 5.64 nM; IC50 ([2]; 72 hours): 140 nM
C=CC(=O)Nc1cc(Nc2nccc(-c3cn(C)c4ccccc34)n2)c(OC(C)C)nc1N(C)CCN(C)C [Example 2 compound, N-{2-{[2-(dimethylamino)ethyl](methyl)amino}-6-isopropyloxy-5-{[4-(1-methyl-1H-indol-3-yl)pyrimidin-2-yl]amino}pyridin-3-yl}acrylamide]	4.22	5.54	196	
C=CC(=O)Nc1cc(Nc2nccc(-c3cn(C)c4ccccc34)n2)c(OCC(F)(F)F)nc1N(C)CCN(C)C [Example 3 compound, N-{2-{[2-(dimethylamino)ethyl](methyl)amino}-6-(2,2,2-trifluoroethoxyl)-5-{[4-(1-methyl-1H-indol-3-yl)pyrimidin-2-yl]amino}pyridin-3-yl}acrylamide]	1.34	2.28	224	
C=CC(=O)Nc1cc(Nc2ncc(Cl)c(-c3cn(C)c4ccccc34)n2)c(OCC(F)(F)F)nc1N(C)CCN(C)C [Example 4 compound, N-{2-{[2-(dimethylamino)ethyl](methyl)amino}-6-(2,2,2-trifluoroethoxyl)-5-{5-chloro-[4-(1-methyl-1H-indol-3-yl)pyrimidin-2-yl]amino}pyridin-3-yl}acrylamide]	1.92	6.15	164	
C=CC(=O)Nc1cc(Nc2nccc(-c3cn(C)c4ccc(F)cc34)n2)c(OC(C)C)nc1N(C)CCN(C)C [Example 5 compound, N-{2-{[2-(dimethylamino)ethyl](methyl)amino}-6-isopropyloxy-5-{[4-(1-methyl-5-fluoro-1H-indol-3-yl)pyrimidin-2-yl]amino}pyridin-3-yl}acrylamide]	2.58	4.83	181	
C=CC(=O)Nc1cc(Nc2nccc(-c3cn(C)c4cc(F)c(F)cc34)n2)c(OC(C)C)nc1N(C)CCN(C)C [Example 6 compound, N-{2-{[2-(dimethylamino)ethyl](methyl)amino}-6-isopropyloxy-5-{[4-(1-methyl-5,6-difluoro-1H-indol-3-yl)pyrimidin-2-yl]amino}pyridin-3-yl}acrylamide]	2.36	5.2	338	
C=CC(=O)Nc1cc(Nc2ncc(Cl)c(-c3cn(C)c4cc(F)ccc34)n2)c(OC(C)C)nc1N(C)CCN(C)C [Example 7 compound, N-{2-{[2-(dimethylamino)ethyl](methyl)amino}-6-isopropyloxy-5-{5-chloro-[4-(1-methyl-6-fluoro-1H-indol-3-yl)pyrimidin-2-yl]amino}pyridin-3-yl}acrylamide]	1.4	16.7	307	
C=CC(=O)Nc1cc(Nc2ncc(Cl)c(-c3cn(C)c4cc(F)c(F)cc34)n2)c(OC(C)C)nc1N(C)CCN(C)C [Example 8 compound, N-{2-{[2-(dimethylamino)ethyl](methyl)amino}-6-isopropyloxy-5-{5-chloro-[4-(1-methyl-5,6-difluoro-1H-indol-3-yl)pyrimidin-2-yl]amino}pyridin-3-yl}acrylamide]	5.98	8.4	375	
C=CC(=O)Nc1cc(Nc2ncc(Cl)c(-c3cn(C)c4ccc(F)cc34)n2)c(OC(C)C)nc1N(C)CCN(C)C [Example 9 compound, N-{2-{[2-(dimethylamino)ethyl](methyl)amino}-6-isopropyloxy-5-{5-chloro-[4-(1-methyl-5-fluoro-1H-indol-3-yl)pyrimidin-2-yl]amino}pyridin-3-yl}acrylamide]	1.17	12.6	697	
C=CC(=O)Nc1cc(Nc2ncc(F)c(-c3cn(C)c4ccc(F)cc34)n2)c(OC(C)C)nc1N(C)CCN(C)C [Example 10 compound, N-{2-{[2-(dimethylamino)ethyl](methyl)amino}-6-isopropyloxy-5-{5-fluoro-[4-(1-methyl-5-fluoro-1H-indol-3-yl)pyrimidin-2-yl]amino}pyridin-3-yl}acrylamide]	2.62	5.32	209	
C=CC(=O)Nc1cc(Nc2ncc(F)c(-c3cn(C)c4ccccc34)n2)c(OC(C)C)nc1N(C)CCN(C)C [Example 11 compound, N-{2-{[2-(dimethylamino)ethyl](methyl)amino}-6-isopropyloxy-5-{5-fluoro-[4-(1-methyl-1H-indol-3-yl)pyrimidin-2-yl]amino}pyridin-3-yl}acrylamide]	2.23	7.22	210	
C=CC(=O)Nc1cc(Nc2ncc(F)c(-c3cn(C)c4cc(F)c(F)cc34)n2)c(OC(C)C)nc1N(C)CCN(C)C [Example 12 compound, N-{2-{[2-(dimethylamino)ethyl](methyl)amino}-6-isopropyloxy-5-{5-fluoro-[4-(1-methyl-5,6-difluoro-1H-indol-3-yl)pyrimidin-2-yl]amino}pyridin-3-yl}acrylamide]	0.96	9.01	339	
C=CC(=O)Nc1cc(Nc2nccc(-c3cn(C)c4cc(F)ccc34)n2)c(OC(C)C)nc1N(C)CCN(C)C [Example 13 compound, N-{2-{[2-(dimethylamino)ethyl](methyl)amino}-6-isopropyloxy-5-{[4-(1-methyl-6-fluoro-1H-indol-3-yl)pyrimidin-2-yl]amino}pyridin-3-yl}acrylamide]	2.62	5.33	209	
C=CC(=O)Nc1cc(Nc2ncc(F)c(-c3cn(C)c4ccccc34)n2)c(OCC(F)(F)F)nc1N(C)CCN(C)C [Example 14 compound, N-{2-{[2-(dimethylamino)ethyl](methyl)amino}-6-(2,2,2-trifluoroethoxyl)-5-{5-fluoro-[4-(1-methyl-1H-indol-3-yl)pyrimidin-2-yl]amino}pyridin-3-yl}acrylamide]	0.77	5.17	242	
C=CC(=O)Nc1cc(Nc2nccc(-c3cn(C)c4ccc(F)cc34)n2)c(OCC(F)(F)F)nc1N(C)CCN(C)C [Example 15 compound, N-{2-{[2-(dimethylamino)ethyl](methyl)amino}-6-(2,2,2-trifluoroethoxyl)-5-{[4-(1-methyl-5-fluoro-1H-indol-3-yl)pyrimidin-2-yl]amino}pyridin-3-yl}acrylamide]	0.69	6.28	337	
C=CC(=O)Nc1cc(Nc2ncc(Cl)c(-c3cn(C)c4ccccc34)n2)c(OC(C)C)nc1N(C)CCN(C)C [Example 16 compound, N-{2-{[2-(dimethylamino)ethyl](methyl)amino}-6-isopropyloxy-5-{5-chloro-[4-(1-methyl-1H-indol-3-yl)pyrimidin-2-yl]amino}pyridin-3-yl}acrylamide methanesulfonate]	1.45	5.43	273	
C=CC(=O)Nc1cc(Nc2ncc(Cl)c(-c3cn(C)c4cc(F)c(F)cc34)n2)c(OC(C)C)nc1N(C)CCN(C)C [Example 17 compound, N-{2-{[2-(dimethylamino)ethyl](methyl)amino}-6-isopropyloxy-5-{5-chloro-[4-(1-methyl-5,6-difluoro-1H-indol-3-yl)pyrimidin-2-yl]amino}pyridin-3-yl}acrylamide methanesulfonate]				IC50 ([1]; 72 hours, methanesulfonate): 5.56 nM; IC50 ([3]; 72 hours, methanesulfonate): 7.63 nM
C=CC(=O)Nc1cc(Nc2nccc(-c3cn(C)c4cc(F)c(F)cc34)n2)c(OC(C)C)nc1N(C)CCN(C)C [Example 18 compound, N-{2-{[2-(dimethylamino)ethyl](methyl)amino}-6-isopropyloxy-5-{[4-(1-methyl-5,6-difluoro-1H-indol-3-yl)pyrimidin-2-yl]amino}pyridin-3-yl}acrylamide methanesulfonate]				IC50 ([1]; 72 hours, methanesulfonate): 2.24 nM; IC50 ([3]; 72 hours, methanesulfonate): 5.07 nM; IC50 ([2]; 72 hours, methanesulfonate): 341 nM

Source: patent publication USRE48687E1, “Pyridinylaminopyrimidine derivatives, preparation process and use thereof” (Shanghai Allist Pharmaceuticals Co., Ltd., priority 2014, dated 2021)
